Several values for one entry are separate records, joined by “and”; a condition that tells them apart may be missing. Equal entries are not always repeated. Inconclusive results and toxic doses are left out.
Tested on: CD2F1 mice, ip Colon 26 adenocarcinoma, median survival T/C
Assay: NCI In Vivo Anticancer Drug Screen. Data for tumor model Colon 26 Adenocarcinoma (intraperitoneal) in CD2F1 (CDF1) mice
Conditions: endpoint: median survival time, higher = longer survival
Description: The antitumor activity of compounds was measured in mice bearing transplantable tumors. Survival or tumor size were measured and the results are expressed as the measurement made in the treated group (T) divided by the measurement made in the vehicle treated control group (C). The tumor model used in this assay is Colon 26 Adenocarcinoma (intraperitoneal) in CD2F1 (CDF1) mice

[1] = dose: 25.0 mg/kg/injection, schedule: Q04DX003 (ip), vehicle: saline with Tween-80
[2] = dose: 50.0 mg/kg/injection, schedule: Q04DX003 (ip), vehicle: saline with Tween-80

In the case of `Nc1ccc2nc3ccc(N)cc3[n+](-c3ccccc3)c2c1`, the T/C (dose: 4.0 mg/kg/injection, schedule: Q04DX003 (ip), vehicle: saline) is reported as 121 % of control, the T/C (dose: 8.0 mg/kg/injection, schedule: Q04DX003 (ip), vehicle: saline) is reported as 120 % of control and the T/C (dose: 16.0 mg/kg/injection, schedule: Q04DX003 (ip), vehicle: saline) is reported as 120 % of control.
In the case of `CC1C(=O)CCC2(C)C1CCC1CC3CC12CCC3(O)CO` (stereo not given), the T/C (dose: 25.0 mg/kg/injection, schedule: Q04DX002 (ip), vehicle: saline + alcohol) is reported as 100 % of control, the T/C (dose: 50.0 mg/kg/injection, schedule: Q04DX002 (ip), vehicle: saline + alcohol) is reported as 106 % of control and the T/C (dose: 100.0 mg/kg/injection, schedule: Q04DX002 (ip), vehicle: saline + alcohol) is reported as 92 % of control.
For `CN(C)C(=O)c1cccc(COc2ccc(N3C(N)=NC(N)=NC3(C)C)cc2Cl)c1`, the T/C (dose: 24.0 mg/kg/injection, schedule: Q06HX018 (ip), vehicle: saline) was 96 % of control and the T/C (dose: 36.0 mg/kg/injection, schedule: Q06HX018 (ip), vehicle: saline) was 98 % of control.
In the case of `C=CCCC(=O)CCCC(=O)O[C@@H]1[C@@H]2[C@H](CC1(C)C)[C@H](O)[C@@]13O[C@@H]1[C@H](O)[C@@]1(CO1)[C@@]23C`, the T/C (dose: 6.25 micrograms/kg/injection, schedule: Q04DX002 (ip), vehicle: Klucel (hydroxypropylcellulose) (HPC)) is reported as 123 % of control, the T/C (dose: 25.0 micrograms/kg/injection, schedule: Q04DX002 (ip), vehicle: Klucel (hydroxypropylcellulose) (HPC)) is reported as 119 % of control and 120 % of control and the T/C (dose: 50.0 micrograms/kg/injection, schedule: Q04DX002 (ip), vehicle: Klucel (hydroxypropylcellulose) (HPC)) is reported as 102 % of control and 98 % of control. For the same compound, the T/C (dose: 100.0 micrograms/kg/injection, schedule: Q04DX002 (ip), vehicle: Klucel (hydroxypropylcellulose) (HPC)) was 117 % of control, the T/C (dose: 200.0 micrograms/kg/injection, schedule: Q04DX002 (ip), vehicle: Klucel (hydroxypropylcellulose) (HPC)) was 120 % of control and 88 % of control and the T/C (dose: 400.0 micrograms/kg/injection, schedule: Q04DX002 (ip), vehicle: Klucel (hydroxypropylcellulose) (HPC)) was 100 % of control.
With `CC[C@]1(O)C[C@H]2CN(CCc3c([nH]c4ccccc34)[C@@](C(=O)OC)(c3cc4c(cc3OC)N(C=O)[C@H]3[C@@](O)(C(=O)OC)[C@H](OC(C)=O)[C@]5(CC)C=CCN6CC[C@]43[C@@H]65)C2)C1` the T/C (dose: 0.95 mg/kg/injection, schedule: Q07DX003 (ip), vehicle: saline) was 112 % of control and 115 % of control, the T/C (dose: 1.4 mg/kg/injection, schedule: Q07DX003 (ip), vehicle: saline) was 120 % of control and 123 % of control and the T/C (dose: 2.1 mg/kg/injection, schedule: Q07DX003 (ip), vehicle: saline) was 105 % of control. The T/C (dose: 3.0 mg/kg/injection, schedule: Q07DX003 (ip), vehicle: saline) was 99 % of control.
In the case of `Clc1ccc(C2SC=Cc3ccccc32)cc1` (stereo not given), the T/C (dose: 3.12 mg/kg/injection, schedule: Q04DX002 (ip), vehicle: Klucel (hydroxypropylcellulose) (HPC)) is reported as 105 % of control, the T/C (dose: 25.0 mg/kg/injection, schedule: Q04DX003 (ip), vehicle: Klucel (hydroxypropylcellulose) (HPC)) is reported as 99 % of control and the T/C (dose: 50.0 mg/kg/injection, schedule: Q04DX003 (ip), vehicle: Klucel (hydroxypropylcellulose) (HPC)) is reported as 103 % of control. For the same compound, the T/C (dose: 62.5 mg/kg/injection, schedule: Q04DX002 (ip), vehicle: Klucel (hydroxypropylcellulose) (HPC)) was 100 % of control, the T/C (dose: 100.0 mg/kg/injection, schedule: Q04DX003 (ip), vehicle: Klucel (hydroxypropylcellulose) (HPC)) was 97 % of control and the T/C (dose: 125.0 mg/kg/injection, schedule: Q04DX002 (ip), vehicle: Klucel (hydroxypropylcellulose) (HPC)) was 98 % of control. For the same compound, the T/C (dose: 200.0 mg/kg/injection, schedule: Q04DX003 (ip), vehicle: Klucel (hydroxypropylcellulose) (HPC)) was 105 % of control, the T/C (dose: 250.0 mg/kg/injection, schedule: Q04DX002 (ip), vehicle: Klucel (hydroxypropylcellulose) (HPC)) was 96 % of control and the T/C (dose: 500.0 mg/kg/injection, schedule: Q04DX002 (ip), vehicle: Klucel (hydroxypropylcellulose) (HPC)) was 100 % of control.
For `CC[C@](O)(C(=O)O)c1cc2n(c(=O)c1CO)Cc1cc3ccccc3nc1-2`, the T/C (dose: 6.25 mg/kg/injection, schedule: Q04DX003 (ip), vehicle: saline) was 114 % of control, the T/C (dose: 12.5 mg/kg/injection, schedule: Q04DX003 (ip), vehicle: saline) was 111 % of control and the T/C (dose: 25.0 mg/kg/injection, schedule: Q04DX003 (ip), vehicle: saline) was 121 % of control.
With `O=C(N/N=C\c1cc(Br)cc(Br)c1O)N/N=C/c1cc(Br)cc(Br)c1O` the T/C [1] was 118 % of control, the T/C [2] was 102 % of control and the T/C (dose: 100.0 mg/kg/injection, schedule: Q04DX003 (ip), vehicle: saline with Tween-80) was 102 % of control. The T/C (dose: 200.0 mg/kg/injection, schedule: Q04DX003 (ip), vehicle: saline with Tween-80) was 123 % of control.
`Nc1nncs1` was tested, and the T/C (dose: 50.0 mg/kg/injection, schedule: Q01DX005 (ip), vehicle: saline) was 112 % of control, the T/C (dose: 50.0 mg/kg/injection, schedule: Q04DX003 (ip), vehicle: saline) was 119 % of control and the T/C (dose: 100.0 mg/kg/injection, schedule: Q01DX005 (ip), vehicle: saline) was 120 % of control.
For `CC(=O)C1(O)Cc2c(O)c3c(c(O)c2C(OC2CC(N)C(O)C(C)O2)C1)C(=O)c1ccccc1C3=O` (stereo not given), the T/C (dose: 1.4 mg/kg/injection, schedule: Q07DX002 (iv), vehicle: saline) was 107 % of control, the T/C (dose: 2.3 mg/kg/injection, schedule: Q07DX002 (iv), vehicle: saline) was 120 % of control and the T/C (dose: 324.0 micrograms/kg/injection, schedule: Q04DX003 (ip), vehicle: water) was 157 % of control. The T/C (dose: 900.0 micrograms/kg/injection, schedule: Q04DX003 (ip), vehicle: water) was 92 % of control.
In the case of `COc1ccc2c(c1O)-c1cccc3c1[C@@H](C2)N(CCCl)CC3`, the T/C (dose: 4.0 mg/kg/injection, schedule: Q04DX002 (ip), vehicle: Klucel (hydroxypropylcellulose) (HPC)) is reported as 107 % of control, the T/C (dose: 8.0 mg/kg/injection, schedule: Q04DX002 (ip), vehicle: Klucel (hydroxypropylcellulose) (HPC)) is reported as 119 % of control and the T/C (dose: 16.0 mg/kg/injection, schedule: Q04DX002 (ip), vehicle: Klucel (hydroxypropylcellulose) (HPC)) is reported as 108 % of control. For the same compound, the T/C (dose: 32.0 mg/kg/injection, schedule: Q04DX002 (ip), vehicle: Klucel (hydroxypropylcellulose) (HPC)) was 124 % of control.
With `COc1cccc2c1C(=N)c1c(O)c3c(c(O)c1C2=O)C[C@@](O)(C(C)=O)C[C@@H]3OC1CC(N)C(O)C(C)O1` (stereo not given in full) the T/C (dose: 3.46 mg/kg/injection, schedule: Q04DX003 (ip), vehicle: water) was 119 % of control, the T/C (dose: 5.76 mg/kg/injection, schedule: Q04DX003 (ip), vehicle: water) was 119 % of control and the T/C (dose: 9.6 mg/kg/injection, schedule: Q04DX003 (ip), vehicle: water) was 94 % of control.
`c1cc[c]([Sn][c]2ccccc2)cc1` was tested, and the T/C (dose: 0.62 mg/kg/injection, schedule: Q04DX003 (ip), vehicle: saline with Tween-80) was 97 % of control, the T/C (dose: 0.62 mg/kg/injection, schedule: Q04DX003 (ip), vehicle: saline) was 105 % of control and the T/C (dose: 1.25 mg/kg/injection, schedule: Q04DX003 (ip), vehicle: saline with Tween-80) was 92 % of control. For the same compound, the T/C (dose: 1.25 mg/kg/injection, schedule: Q04DX003 (ip), vehicle: saline) was 112 % of control, the T/C (dose: 2.5 mg/kg/injection, schedule: Q04DX003 (ip), vehicle: saline with Tween-80) was 100 % of control and the T/C (dose: 2.5 mg/kg/injection, schedule: Q04DX003 (ip), vehicle: saline) was 107 % of control. The T/C (dose: 5.0 mg/kg/injection, schedule: Q04DX003 (ip), vehicle: saline with Tween-80) was 108 % of control, the T/C (dose: 5.0 mg/kg/injection, schedule: Q04DX003 (ip), vehicle: saline) was 117 % of control and the T/C (dose: 10.0 mg/kg/injection, schedule: Q04DX003 (ip), vehicle: saline) was 86 % of control.
With `C/C=C/C1=CC(=O)C(O)C1O` (stereo not given) the T/C (dose: 45.0 mg/kg/injection, schedule: Q04DX002 (ip), vehicle: water) was 106 % of control, the T/C (dose: 90.0 mg/kg/injection, schedule: Q04DX002 (ip), vehicle: water) was 99 % of control and the T/C (dose: 180.0 mg/kg/injection, schedule: Q04DX002 (ip), vehicle: water) was 101 % of control.
In the case of `O=P1(N(CCCl)CCCl)NCCCO1` (stereo not given), the T/C (dose: 50.0 mg/kg/injection, schedule: Q03DX002 (ip), vehicle: saline) is reported as 106 % of control, the T/C (dose: 51.0 mg/kg/injection, schedule: Q07DX003 (ip), vehicle: saline) is reported as 119 % of control and the T/C (dose: 100.0 mg/kg/injection, schedule: Q03DX002 (ip), vehicle: saline) is reported as 117 % of control. The T/C (dose: 105.0 mg/kg/injection, schedule: Q07DX003 (ip), vehicle: saline) was 154 % of control and the T/C (dose: 150.0 mg/kg/injection, schedule: Q07DX003 (ip), vehicle: saline) was 165 % of control.
`COc1cc(C)c2c(c1C=O)Oc1c(c(C)c(O)c3c1C(O)OC3=O)OC2=O` (stereo not given) was tested, and the T/C (dose: 3.12 mg/kg/injection, schedule: Q04DX003 (ip), vehicle: saline with Tween-80) was 103 % of control, the T/C (dose: 6.25 mg/kg/injection, schedule: Q04DX003 (ip), vehicle: saline with Tween-80) was 103 % of control and the T/C (dose: 12.5 mg/kg/injection, schedule: Q04DX003 (ip), vehicle: saline with Tween-80) was 104 % of control. For the same compound, the T/C [1] was 101 % of control and the T/C [2] was 112 % of control.
